The subject of this assay is P. falciparum 3D7 growth, pLDH absorbance. Briefly: P. falciparum 3D7 growth inhibition, dose response, strain 3D7 (AID 2305).

For the compound `Cc1cccc2[nH]c(-c3cccc(-c4cccc(CNCc5cnn(-c6ccccc6)n5)c4)c3)nc12`, the IC50 – broadly, the point on the concentration scale where inhibition reaches its midpoint – is 660 nM.
As for `COc1cccc2c(NCCNc3ccnc4c(OC)cccc34)ccnc12`, the figure is 270 nM; as for `Cc1cc(C)n(Cc2ccc(C(=O)NCC3CCCCC3)cc2)n1`, 960 nM; as for `Cc1cc(N[C@@H](CC(C)C)C(=O)NCc2cccc(F)c2)nc(Nc2ccccc2)n1`, 1090 nM.
As for `COc1ccc2nccc([C@@H](O)CN3CCC(NCCOc4cccc(C(F)(F)F)c4Cl)CC3)c2c1`, the figure is 150 nM; as for `COc1ccc2nccc([C@@H](O)CN3CC[C@H](NCc4nc5c(cc4F)SCC(=O)N5)[C@H](F)C3)c2c1`, 730 nM.
Next, `COC(=O)c1cccc(CNCc2cccc(-c3cccc(-c4nc5ccccc5[nH]4)c3)c2)c1`: 500 nM; `CC(=O)Nc1cccc(C(=O)Nc2ccc(-c3cccc(-c4nc5ccc(F)cc5[nH]4)c3)cc2)c1`: 630 nM; `N#Cc1ccc(NC(=NCc2cccnc2)Nc2ccc(-c3ccccc3)cc2)c(O)c1`: 810 nM.
Compound `O=C(Nc1cccc(CN2CCN(C(=O)c3ccccc3)CC2)c1)c1cccs1` showed an IC50 of 310 nM. This IC50 lies about 2.6-fold lower than the previous one.
Next, `N#Cc1ccc2c(c1)CCN(CCC1CCC(NC(=O)/C=C/c3nc4ccccc4s3)CC1)CC2` (configuration not stated): 830 nM; `COc1ccc(CCn2c(=N)c(C(=O)NCc3cccnc3)cc3c(=O)n4cccc(C)c4nc32)cc1`: 1400 nM.
As for `c1ccc(Oc2ccc(Nc3ccnc4ccc(-c5ccccn5)cc34)cc2)cc1`, the figure is 1100 nM.
As for `O=C(CNC(=O)c1ccc(O)cc1)Nc1cccc(-c2cccc(-c3nc4ccc(C(F)(F)F)cc4[nH]3)c2)c1`, the figure is 1040 nM; as for `CC(C)(C)c1ccc(CN2CCCCC(NC(=O)c3cc(-c4ccccc4F)cs3)C2)cc1` (configuration not stated), 270 nM.
The compound `O=C(NCCc1ccccc1)[C@H](Cc1ccccc1)Nc1ccnc(NCC2CCCCC2)n1` gave an IC50 of 1380 nM. Compared with the last compound, the IC50 is about 5.1-fold higher.
The compound `Cc1cc(Oc2ccc(-n3ccnc3)cc2)nc(N2CCN(CCCN3CCCC3)CC2)n1` gave an IC50 of 930 nM. This IC50 and that of the compound before are within 1.5-fold of each other.
The compound `COc1ccc2ccccc2c1C=NNc1ccnc2ccc(F)cc12` returned an IC50 of 1110 nM.
Turning to `Cc1cccc(NC(=O)Nc2ccc(I)c(OCCN(C)C)c2)c1C`, the IC50 came to 730 nM.
As for `CC1CCCN(S(=O)(=O)c2ccc(NC(=O)c3cc(-c4ccccc4O)n[nH]3)cc2)C1` (configuration not stated), the figure is 760 nM; as for `Nc1ccc(-c2ccc(NC(=O)Nc3cc(C(F)(F)F)ccc3F)cc2)cn1`, 660 nM; as for `CN1CCC(NCc2ccc(S(=O)(=O)Nc3ccc(Oc4cccc(Cl)c4)cc3)cc2)CC1`, 740 nM.
Next, `CCOC(=O)c1ccc(NC(=O)Nc2cccc(-c3cccc(-c4nc5ccccc5[nH]4)c3)c2)cc1`: 70 nM.
As for `CC(C)N1CCN(c2ccc(OCCCN3CCN(c4cccc(Cl)c4Cl)CC3)c(C(F)(F)F)c2)CC1`, the figure is 810 nM; as for `CC1(C)CCCN(Cc2c(O)ccc3c(=O)c(-c4nc5ccccc5s4)c(N)oc23)C1`, 340 nM.
`O=C(/C=C/c1ccc(Cl)c(Cl)c1)NCCCCCCN1CCCN(C(=O)Nc2ccc(Cl)c(C(F)(F)F)c2)CC1` came in with a half-maximal inhibitory concentration (IC50) of 560 nM.
As for `CC(C)=CC1C(C(=O)n2c(N)nc3ccccc32)C1(C)C` (configuration not stated), the figure is 190 nM; as for `COc1ccc(C2SCC(=O)N2CCc2ccc(OC)c(OC)c2)cc1` (configuration not stated), 310 nM; as for `Nc1ccc(-c2nc3ccc(Oc4ccc5nc(-c6ccc(N)cc6)[nH]c5c4)cc3[nH]2)cc1`, 720 nM.
Next, `CCCCN(CCCC)CCCN(CCCN(CCCC)CCCC)c1cc(C)nc(Nc2ccc(Br)cc2)n1`: 130 nM; `COc1cc(CC2c3cc(O)c(Cl)cc3CCN2C)c(OC)cc1C` (configuration not stated): 710 nM; `CCC[C@@H]([C@@H](CC1CCCCC1)C(=O)N[C@@H](CCCCNS(C)(=O)=O)C(=O)Nc1nccs1)N(O)C=O`: 80 nM.
As for `OC1CCN(c2cc(-c3ccccn3)nc(-c3ccccn3)n2)CC1`, the figure is 1050 nM; as for `CC(C)(C)OC(=O)N[C@@H](Cc1ccccc1)C(=O)Nc1cccc(-c2cccc(NC(=O)[C@H](Cc3ccccc3)NC(=O)OC(C)(C)C)c2)c1`, 610 nM; as for `COc1ccc2c(c1)Nc1ccc(Cl)cc1C2N` (configuration not stated), 300 nM.
`CCCCCC(=O)N1CCOC(CCN2CCC(c3ccccc3)CC2)(c2ccc(Cl)c(Cl)c2)C1` (configuration not stated) yielded an IC50 of 1120 nM.
Next, `CC(C)(C)c1ccc(C(=O)Nc2ccc(NC(=O)c3ccc([N+](=O)[O-])o3)cc2)cc1`: 840 nM.
As for `Cc1cccc2[nH]c(-c3ccc(-c4ccc(CN5CCN(CC6CCCN(C)C6)CC5)cc4)cc3)nc12` (configuration not stated), the figure is 140 nM; as for `N#Cc1cccc(C(=O)Nc2ccc(-c3nc4ccccc4[nH]3)cc2)c1`, 540 nM.
Next, `O=C(Cn1c(CCc2cccc(F)c2F)cc(=O)c2cccnc21)N(CCCn1ccnc1)Cc1ccc(-c2ccc(C(F)(F)F)cc2)cc1`: 800 nM; `CCCc1ccc(N2C(N)=NC(N)=NC2(C)C)cc1`: 30 nM; `Cc1cc(N[C@@H](Cc2ccccc2)C(=O)NCc2cccs2)nc(NCCc2ccccn2)n1`: 1280 nM.
The compound `CCCCCc1cc(OC(C)=O)c2c(c1)OC(C)(C)C=C2C1=CCN(Cc2ccccc2)CC1` had a half-inhibitory concentration (IC50) of 930 nM.
In the case of `Cc1cccc(NC(=O)Nc2cccc(-c3ccc(-c4nc5ccc(C(F)(F)F)cc5[nH]4)cc3)c2)c1`, the IC50 was 900 nM.
As for `COc1ccc2nccc([C@@H](O)CN3CCC(NCCOc4cc(C(F)(F)F)ccc4F)CC3)c2c1`, the figure is 110 nM; as for `Cc1ncc(CN2CCC(C(=O)Nc3ccc(-c4nc5ccccc5o4)cc3)CC2)s1`, 390 nM.
As for `CN(C)c1ccc(C=CC(=O)NC(=O)c2ccccc2O)cc1`, the figure is 230 nM.
`COc1cccc(NC(=O)COc2ccc(C(=O)Nc3nc4ccccc4[nH]3)cc2)c1` displayed an IC50 of 970 nM.
As for `NOCCCCOc1ccc(Br)cc1`, the figure is 190 nM; as for `Cc1cc(=O)c2cc(-c3ccc(OC(F)(F)F)cc3)ccc2[nH]1`, 480 nM.
As for `CCN1CCN(c2cc(C)c3cc(NC(=O)C=Cc4cccc(OC)c4OC)ccc3n2)CC1`, the figure is 700 nM; as for `Cc1cc(N(C)CCCN2CCCCC2)nc(Nc2ccc(Cl)cc2)n1`, 190 nM.
Next, `COc1ccc(NC(=O)[C@H](Cc2ccccc2)Nc2cc(C)nc(NCc3ccccc3C)n2)cc1`: 790 nM.
`NC(N)=Nc1nc(-c2cc(NC(=O)C(F)(F)F)cc([N+](=O)[O-])c2)cs1` showed an IC50 of 780 nM. This IC50 and that of the compound before are within 1.5-fold of each other.
Next, `O=C(NC1CCCC1)c1cc2c(=O)n3ccccc3nc2nc1NCCc1ccccc1`: 650 nM; `COc1ccc2[nH]cc(C3=CCN(C[C@H]4C[C@@H]4C(=O)c4ccccc4)CC3)c2n1`: 270 nM; `CCN(CC)CCOc1ccc(C(O)(C#CC(O)(c2ccc(OCCN(CC)CC)cc2)c2ccc([N+](=O)[O-])cc2)c2ccc([N+](=O)[O-])cc2)cc1` (configuration not stated): 1730 nM.
Next, `Cc1cc(NCCC(=O)Nc2ccccc2)nc(NCC2CCCCC2)n1`: 840 nM.
`CC(C)(C)c1cc(C(=O)Nc2ccc(C(=N)N)cc2)c(O)c(C(C)(C)C)c1` displayed an IC50 of 760 nM.
Next, `O=C(Nc1cccc(F)c1)NC1CCN(CCCCCNC(=O)[C@@H]2C[C@H]2c2ccc(Cl)c(Cl)c2)CC1`: 760 nM.
As for `COc1cccc(CN2CCN(C(c3ccccc3)c3ccccc3)CC2)c1O`, the figure is 780 nM; as for `N#Cc1cccc(Nc2nccc(NCC(O)c3cccc(C(F)(F)F)c3)n2)c1` (configuration not stated), 550 nM; as for `Cc1ccc(CN(Cc2ccc(C(=O)N(C)C)cc2)Cc2ccc3c(c2)OCCO3)cc1C`, 800 nM.
As for `CCN(CC)CCCNc1nccc(N2CCc3ncnc(Nc4ccc(OCc5cccc(F)c5)c(Cl)c4)c3C2)n1`, the figure is 110 nM; as for `COc1ccc(CN2CCC(Oc3cccc(NC(=O)c4ccc(C(F)(F)F)cc4)c3)CC2)cc1`, 740 nM; as for `Cc1ccc2nc(C)cc(NN=Cc3cccc(F)c3)c2c1`, 630 nM.
Compound `COc1cccc(C2(NC[C@@H](O)[C@H](Cc3ccccc3)NC(=O)c3ccccc3)CCCCC2)c1` yielded a 50% inhibitory concentration (IC50) of 730 nM. The IC50 values of the last two compounds are within 1.5-fold of each other.
As for `CN(C)c1ccc(-c2ccc(C(=O)NC3CCN(Cc4ccc5c(c4)OCCO5)CC3)s2)cc1`, the figure is 1120 nM.
Regarding `Cc1ccc(OCCCCONC(=O)c2ccccc2)cc1`, the concentration for half-maximal inhibition (IC50) is 150 nM. This IC50 is about 7.5-fold lower than that of the compound before.
As for `CC(C)CNCc1ccc(-c2ccc(CN(CCCN3CCN(C)CC3)C(=O)CCC3CCCC3)cc2)cc1`, the figure is 1060 nM.
For the compound `CCOc1ccc2nc(-c3ccccc3)cc(NN=Cc3ccncc3)c2c1`, the IC50 came to 150 nM. This IC50 lies about 7.1-fold lower than the previous one.
As for `COc1cc2cc(Cc3cnc(N)nc3N)ccc2c(OC)c1OC`, the figure is 240 nM.
As for `CCCCCCc1cc2cc(-c3csc(C=Cc4ccccc4)n3)c(=O)oc2cc1O`, the figure is 970 nM; as for `CC(C)(CNCc1ccc(Cl)c(Cl)c1)c1nc(-c2ccc(Cl)c(O)c2)c(-c2ccncc2)[nH]1`, 760 nM; as for `O=C(/C=C/c1ccc(Cl)c(Cl)c1)NC1CCC(CN2CCC(Cc3c[nH]c4ccccc34)CC2)CC1` (configuration not stated), 890 nM.
As for `Cc1ccc(CNC(=O)[C@H](CC(C)C)Nc2cc(C)nc(NCc3ccccc3C)n2)cc1`, the figure is 950 nM; as for `CCn1ncc2c(N3CCCC3=O)cc(C(=O)N[C@@H](Cc3ccccc3)[C@H](O)CNC(C)(C)c3cccc(OC)c3)cc21`, 110 nM; as for `CN1CC=C(c2c[nH]c3ccc(C(=O)c4nccs4)cc23)CC1`, 240 nM.
On to `Fc1cccc(Cl)c1-c1nc(NCCC(c2ccccc2)c2ccccc2)no1`, for which the IC50 worked out at 550 nM. Compared with the last compound, the IC50 is about 2.3-fold higher.
Next, `O=C1NC(c2ccc(N3CCCCCC3)cc2)Nc2ccccc21` (configuration not stated): 570 nM; `CCCc1cc(=O)[nH]c(-n2nc(C)cc2NC(=O)c2cc3ccccc3o2)n1`: 1110 nM.
Next, `Nc1cc(-c2cccc(Cl)c2)nn1-c1ccnc2cc(Cl)ccc12`: 750 nM; `Cc1cccc(N2CCN(C3CCC(NC(=O)c4cc5ccccc5[nH]4)CC3)CC2)c1C` (configuration not stated): 610 nM.
Next, `N#Cc1c(F)cc(N2CCC(NCC[C@H](N)Cc3ccc(F)c(F)c3)CC2)cc1F`: 860 nM.
Regarding `C=C(C)COc1ccc(-c2n[nH]c(C(F)(F)F)c2-c2ccccc2OC)c(O)c1`, the concentration for half-maximal inhibition (IC50) is 780 nM.
Next, `CCC1(CC)N=C(N)N=C(N)N1OCc1ccc(Cl)c(Cl)c1`: 60 nM; `COc1ccc2nccc([C@@H](O)CN3CCC(NCCOc4ccc(F)cc4F)CC3)c2c1`: 140 nM.

(Values after PubChem BioAssay AID2305 (GlaxoSmithKline (GSK), 2010).)
